Among the data in the OPERA property sets (Mansouri et al. 2018) are solubility values, retold here.

Values after ≈ are worked out from the molar mass of the structure shown.

For the first series the following is noted: 22 °C.
Compound `O=C1CCCCCCCN1` registered a solubility of 4290 mM (≈ 606000 µg/mL).

The same series, now with this note: 23 °C.
In the case of `O=c1[nH]c(=O)c2cc([N+](=O)[O-])cc([N+](=O)[O-])c2[nH]1`, the solubility was determined as 0.623 mM (≈ 157 µg/mL).

Compound `CCCc1nc(N)c(CC)c(CCC)n1` registered a solubility of 3.07 mM (≈ 636 µg/mL). This solubility lies about 4.9-fold higher than the previous one.

Regarding `CCC(C(=O)O)C(CC)C(=O)O` (stereo not drawn), the solubility amounted to 69.5 mM (≈ 12100 µg/mL). Against the preceding compound, the solubility is about 23-fold higher. As for `NC(=S)NNC(N)=S`, the solubility is 16 mM (≈ 2400 µg/mL). As to `NC(=O)N/N=C/[C@H](O)[C@@H](O)[C@@H](O)[C@H](O)CO`, the solubility turned out to be 222 mM (≈ 52700 µg/mL). On to `CCCC(N)C(=O)O` (racemic), for which the solubility is 805 mM (≈ 94300 µg/mL).

Still in this series, the particulars now being: 24 °C.
Turning to `c1ccc(CCNCc2ccccc2)cc1`, the solubility is 1.89 mM (≈ 400 µg/mL).

Staying with this series, now noted: 25 °C.
`CCOc1ccc(N(C(C)=O)C(C)=O)cc1`: the solubility is 11.3 mM (≈ 2500 µg/mL). That is a millimolar value.

Compound `O=C(NNC(=O)c1ccccc1)c1ccccc1` yielded a solubility of 25.8 mM (≈ 6200 µg/mL). The compound `Cc1ccccc1OCC(=O)O` yielded a solubility of 3.61 mM (≈ 600 µg/mL). This solubility lies about 7.1-fold lower than the previous one.

For `CCCCCCCCCCCCNC(=O)c1cccnc1`, the solubility is 0.62 mM (≈ 180 µg/mL). `CCCOC(=O)c1cccnc1` came in with a solubility of 57.5 mM (≈ 9500 µg/mL).

In turn, `ON=C1CCCCCC1=NO` showed a solubility of 37.6 mM (≈ 5870 µg/mL). This solubility lies about 1.5-fold lower than the previous one. On to `CC1=C(C(=O)O)CCC1(C)C`, for which the solubility stood at 1.3 mM (≈ 200 µg/mL). With `Cc1cc(O)c(Cc2ccccc2)c(C)c1Cl`, the solubility was found to be 0.05 mM (≈ 12.3 µg/mL). Regarding `CN(C)c1cccc(S(=O)(=O)O)c1`, the solubility came to 1990 mM (≈ 400000 µg/mL). Regarding `Oc1ccc(C2CCCCC2)c(O)c1`, the solubility turned out to be 2.65 mM (≈ 510 µg/mL). Compared with the last compound, the solubility is about 750-fold lower. In turn, `Cc1nc2c(c(=O)n(C)c(=O)n2C)n1C` registered a solubility of 35.5 mM (≈ 7400 µg/mL). This solubility is about 13-fold higher than that of the compound before. In turn, `O=C(NCCO)c1cc(O)ccc1O` displayed a solubility of 286 mM (≈ 56400 µg/mL). The same measure, in the same setting: next, `CCCCCCCCCCNC(=O)C(C)O` (stereo not drawn): 0.436 mM (≈ 100 µg/mL). For the compound `CCCCN(C(N)=O)c1ccccc1`, the solubility came to 50.5 mM (≈ 9700 µg/mL). `CC1OC(=O)c2cc([N+](=O)[O-])ccc21` (stereo not drawn): the solubility was 2.42 mM (≈ 468 µg/mL). `COC(=O)OC(C)C(=O)OC` (stereo not drawn) displayed a solubility of 251 mM (≈ 40700 µg/mL). Take `CC(=O)c1cc(O)c(O)c(O)c1`: the solubility is 33.8 mM (≈ 5680 µg/mL). Consider `CCCCCCCC(C(=O)O)C(=O)O`, for which the solubility was found to be 9.1 mM (≈ 1840 µg/mL).

In the case of `CC(C)(CCC(C)(C)CC(=O)O)CC(=O)O`, the solubility came out at 0.738 mM (≈ 170 µg/mL). Still for that read-out and setting: the value for `O=C1OCc2ccc(Br)cc21` was 2.25 mM (≈ 480 µg/mL); that for `CCOC(=O)c1cccnc1` was 370 mM (≈ 56000 µg/mL). `CCCC(=O)Oc1ccc([N+](=O)[O-])cc1` yielded a solubility of 0.115 mM (≈ 24 µg/mL).

For `C=CC1=C(C)C(=Cc2[nH]c(Cc3[nH]c(C=C4NC(=O)C(C)=C4C=C)c(C)c3CCC(=O)O)c(CCC(=O)O)c2C)NC1=O`, the solubility is 0.0154 mM (≈ 9 µg/mL). `CCCC(O)CC(C)C` (stereo not drawn) gave a solubility of 12.4 mM (≈ 1610 µg/mL). Regarding `O=C(O)CCC[Se][Se]CCCC(=O)O`, the solubility amounted to 5.66 mM (≈ 1880 µg/mL). Same read-out and setting: the value for `CCCCCCCCOCC(O)CO` (stereo not drawn) was 12 mM (≈ 2450 µg/mL); that for `O=C(Nc1ccccn1)c1cccnc1` was 1.05 mM (≈ 210 µg/mL); that for `CCCCCCCCCCCNC(=O)c1cccnc1` was 0.941 mM (≈ 260 µg/mL). The same measure, in the same setting: next, `CCCCC(=O)NCCNC(=O)CCCC`: 15.3 mM (≈ 3500 µg/mL); `CCOc1nc(OCC)nc(OCC)n1`: 32.8 mM (≈ 7000 µg/mL). Still for that read-out and setting: next, `O=C1CNC(=S)N1c1ccccc1`: 0.572 mM (≈ 110 µg/mL). `Cc1cc(C)c([PH](=O)O)c(C)c1` had a solubility of 1.62 mM (≈ 299 µg/mL).

As to `O=C(O)[C@@H]1CC[C@H](C(=O)O)SS1`, the solubility was determined as 44.9 mM (≈ 9360 µg/mL). `NS(=O)(=O)c1ccc(S(N)(=O)=O)cc1` gave a solubility of 2.96 mM (≈ 700 µg/mL).

In turn, `CC(C(=O)O)N(CCC#N)CCC#N` (stereo not drawn) had a solubility of 666 mM (≈ 130000 µg/mL). On the same count and under the same terms, next, `CCCC(C)(O)CCC`: 25.9 mM (≈ 3370 µg/mL). In the case of `O=C(O)c1ccc2ncccc2c1`, the solubility was found to be 900 mM (≈ 156000 µg/mL). Compound `CCc1c[nH]c(=O)nc1N` had a solubility of 95.6 mM (≈ 13300 µg/mL). Against the preceding compound, the solubility is about 9.4-fold lower. `Cc1cc(C)c(C)cn1` yielded a solubility of 165 mM (≈ 20000 µg/mL). Compared with the last compound, the solubility is about 1.7-fold higher.

Turning to `Cc1cc(Cl)cc(C)c1O`, the solubility was determined as 21.1 mM (≈ 3300 µg/mL). With `CCCS`, the solubility was found to be 25 mM (≈ 1900 µg/mL). The solubility values of the last two compounds are within 1.5-fold of each other. For `COP(=S)(OC)SSP(=S)(OC)OC`, the solubility is 0.04 mM (≈ 12.6 µg/mL).

As to `CCCCC(O)CN(N=Cc1ccc([N+](=O)[O-])o1)C(N)=O` (stereo not drawn), the solubility worked out at 0.268 mM (≈ 80 µg/mL). `CCCCOC(=O)C(C)OC(C)=O` (stereo not drawn): the solubility was 176 mM (≈ 33200 µg/mL). Regarding `CC(C)CC(=O)Oc1ccc([N+](=O)[O-])cc1`, the solubility was determined as 0.0403 mM (≈ 9 µg/mL). Against the preceding compound, the solubility is about 4400-fold lower.

On to `CCOc1ccccc1C=CC(=O)[O-]`, for which the solubility was 1.19 mM. On the same count and under the same terms, the value for `CC(=O)OOC(=O)c1ccccc1` was 3.55 mM (≈ 639 µg/mL).

Still in this series, the particulars now being: 26 °C.
The compound `N#CCCNC(Cc1ccccc1)C(=O)O` (racemic) showed a solubility of 32.1 mM (≈ 7000 µg/mL). The same measure, in the same setting: next, `Cc1ccc(C)c(C)n1`: 257 mM (≈ 31200 µg/mL).

Still in this series, the particulars now being: 27 °C.
The compound `Cc1c2c(cc3c1ccc1ccccc13)CCCC2` had a solubility of 0.000179 mM (≈ 0.044 µg/mL).

The series is the same for the next values; noted with them: 28 °C.
In turn, `CC(NC(N)=O)NC(N)=O` showed a solubility of 256 mM (≈ 37400 µg/mL). On to `NC(=O)NCO`, for which the solubility was determined as 451 mM (≈ 40600 µg/mL).

The compound `NC(=O)NCNC(N)=O` displayed a solubility of 223 mM (≈ 29400 µg/mL).

Still in this series, the particulars now being: 30 °C.
`COC(=O)c1ccc(O)c(Br)c1` came in with a solubility of 0.684 mM (≈ 158 µg/mL).

`CCCOC(=O)CO[N+](=O)[O-]` had a solubility of 11 mM (≈ 1800 µg/mL). Compound `CCCCCCCCS(=O)(=O)NS(=O)(=O)CCCCCCCC` displayed a solubility of 0.122 mM (≈ 45 µg/mL).

As to `CCOC(=O)CO[N+](=O)[O-]`, the solubility was found to be 19.4 mM (≈ 2900 µg/mL). `CCCCCCCCOC(=O)c1ccc(O)cc1` came in with a solubility of 0.0599 mM (≈ 15 µg/mL). Consider `C[C@H](Nc1ccccc1Cl)C(=O)O` (racemic), for which the solubility came to 4.71 mM (≈ 940 µg/mL). `CC(=O)c1cccs1` returned a solubility of 111 mM (≈ 14000 µg/mL). This solubility is about 24-fold higher than that of the compound before.
